Data: the NIST ThermoML archive (doi:10.1016/j.fluid.2006.03.002)
± gives the expanded uncertainty stated by the source.

Experiment: activity coefficient (dimensionless); of the first substance listed, at infinite dilution; xn = mol fraction of the nth substance listed
Conditions: Liquid, Chromatography, x1 = 0

SMILES | activity coefficient (308.15 K) | activity coefficient (318.15 K) | activity coefficient (328.15 K)
C=CCCCCC [1-heptene] + CCCC[P+](C)(CCCC)CCCC.COS(=O)(=O)[O-] | 8.2 ± 0.6 | 8 ± 0.5 | 7.1 ± 0.5
C#CCCCC [1-hexyne] + CCCC[P+](C)(CCCC)CCCC.COS(=O)(=O)[O-] | 1.8 ± 0.1 | 1.7 ± 0.1 | 
c1ccccc1 [benzene] + CCCC[P+](C)(CCCC)CCCC.COS(=O)(=O)[O-] | 1 ± 0.1 | 1 ± 0.1 | 0.9 ± 0.1
C1CCCCCC1 [cycloheptane] + CCCC[P+](C)(CCCC)CCCC.COS(=O)(=O)[O-] | 6.5 ± 0.4 | 6.4 ± 0.4 | 5.3 ± 0.4
C1CCCCC1 [cyclohexane] + CCCC[P+](C)(CCCC)CCCC.COS(=O)(=O)[O-] | 5.5 ± 0.4 | 5.4 ± 0.4 | 4.6 ± 0.3
C1CCCC1 [cyclopentane] + CCCC[P+](C)(CCCC)CCCC.COS(=O)(=O)[O-] | 4.5 ± 0.3 | 4.3 ± 0.3 | 3.5 ± 0.2
CCCCCCC [heptane] + CCCC[P+](C)(CCCC)CCCC.COS(=O)(=O)[O-] | 13.4 ± 0.9 | 12.2 ± 0.8 | 10.7 ± 0.7
C=CCCCC [hex-1-ene] + CCCC[P+](C)(CCCC)CCCC.COS(=O)(=O)[O-] | 6.4 ± 0.4 | 6 ± 0.4 | 5.3 ± 0.4
CCCCCC [hexane] + CCCC[P+](C)(CCCC)CCCC.COS(=O)(=O)[O-] | 10.3 ± 0.7 | 9.5 ± 0.7 | 8.4 ± 0.6
C=CCCCCCC [oct-1-ene] + CCCC[P+](C)(CCCC)CCCC.COS(=O)(=O)[O-] | 10.1 ± 0.7 | 10 ± 0.7 | 8.9 ± 0.6
CCCCCCCC [octane] + CCCC[P+](C)(CCCC)CCCC.COS(=O)(=O)[O-] | 17.3 ± 1.2 | 15.9 ± 1.1 | 13.8 ± 0.9
CCCCC [pentane] + CCCC[P+](C)(CCCC)CCCC.COS(=O)(=O)[O-] | 8.1 ± 0.6 | 7.7 ± 0.5 | 6.7 ± 0.5
